Source: US20090312310A1 (priority 2006, published 2009)
pIC50: −log10 of the molar value.

Target: T1, Mdm2/p53 binding (Homo sapiens, UniProt Q00987, L33E)
T1 construct: having Mdm2 amino acids at positions 25 to 108
Experiment: Mdm2/p53 binding assay (HTRF, His-p53 / GST-Mdm2)
Conditions: His-p53 (aa 1-132) and GST-Mdm2 (aa 25-108, L33E), 6.25 nM each; 25° C., 1 hour
Method: Next, a test compound was diluted with protein buffer solution containing 10% DMSO, and this test compound dilution was added in an amount of 4 μL/well to the plate.
These dilutions were added in an amount of 8 μL/well (total reaction solution volume: 20 μl/well). Then, the plate was left at 25° C. for 1 hour.
C (correction factor)=(A−BI)/D
The R value calculated from the well supplemented with His-p53, GST-Mdm2, the test compound, and each antibody was defined as R (sample). The R value calculated from the well supplemented with His-p53, GST-Mdm2, and each antibody but without the test compound was defined as R (control). The R value calculated from the well supplemented with GST-Mdm2, the test compound, and each antibody but without His-p53 was defined as R (background). T/C was calculated from the formula shown below. An IC50 value for Mdm2/p53 binding was calculated by sigmoid fitting using Prism (GraphPad Software).
T/C=(R (sample)−R (background))/(R (control)−R (background))

T1 sequence (Q00987 25-108 L33E, species assumed): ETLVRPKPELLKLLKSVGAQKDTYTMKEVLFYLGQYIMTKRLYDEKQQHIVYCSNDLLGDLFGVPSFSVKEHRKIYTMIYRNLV

SMILES | pIC50
CC(C)C1=C(CN2CCNC(=O)C2)SC2=NC(C)(c3ccc(Cl)cc3)C(c3ccc(Cl)cc3)N21 (racemic) [Example 18, 4-{[(5R*,6S*)-5,6-Bis(4-chlorophenyl)-3-isopropyl-6-methyl-5,6-dihydroimidazo[2,1-b][1,3]thiazol-2-yl]methyl}piperazin-2-one] | 7.06
CCCCC[C@]1(C)N=C2SC(C(=O)N3CCC[C@H]3C(=O)N(C)C)=C(C(C)C)N2[C@@H]1c1ccc(Cl)cc1 (relative stereo) [Example 99 (Cis-Isomer), 1-{[(5R*,6S*)-5-(4-chlorophenyl)-3-isopropyl-6-methyl-6-pentyl-5,6-dihydroimidazo[2,1-b][1,3]thiazol-2-yl]carbonyl}-N,N-dimethyl-L-prolinamide] | 6.71
CC(C)C1=C(C(=O)N(C)C)SC2=N[C@@](C)(c3ccc(Cl)cc3)[C@@H](c3ccc(Cl)cc3)N21 [Example 39, (5R,6S)-5,6-Bis(4-chlorophenyl)-3-isopropyl-N,N,6-trimethyl-5,6-dihydroimidazo[2,1-b][1,3]thiazole-2-carboxamide] | 7.29
CC(C)C1=C(C(=O)N2CCC[C@H]2C(=O)N2CCC[C@H]2C(=O)O)SC2=N[C@@](C)(c3ccc(Cl)cc3)[C@@H](c3ccc(Cl)cc3)N21 [Example 68, 1-{[(5R,6S)-5,6-Bis(4-chlorophenyl)-3-isopropyl-6-methyl-5,6-dihydroimidazo[2,1-b][1,3]thiazol-2-yl]carbonyl}-L-prolyl-L-proline] | 7.34
CC(=O)N(C)C[C@H](C)N(C)C(=O)C1=C(C(C)C)N2C(=N[C@@](C)(c3ccc(Cl)cc3)[C@H]2c2ccc(Cl)cc2)S1 [Example 74, (5R,6S)—N-{(1S)-2-[Acetyl(methyl)amino]-1-methylethyl}-5,6-bis(4-chlorophenyl)-3-isopropyl-N,6-dimethyl-5,6-dihydroimidazo[2,1-b][1,3]thiazole-2-carboxamide] | 7.64
CC(=O)N1CCN(C(=O)CN(CC(C)C)C(=O)C2=C(C(C)C)N3C(=N[C@@](C)(c4ccc(Cl)cc4)[C@H]3c3ccc(Cl)cc3)S2)CC1 [Example 88, (5R,6S)—N-[2-(4-Acetylpiperazin-1-yl)-2-oxoethyl]-5,6-bis(4-chlorophenyl)-N-isobutyl-3-isopropyl-6-methyl-5,6-dihydroimidazo[2,1-b][1,3]thiazole-2-carboxamide] | 7.54
CC(C)C1=C(C(=O)N2CCC[C@H]2c2n[nH]c(=O)o2)SC2=N[C@@](C)(c3ccc(Cl)cc3)[C@@H](c3ccc(Cl)cc3)N21 [Example 89, 5-((2S)-1-{[(5R,6S)-5,6-Bis(4-chlorophenyl)-3-isopropyl-6-methyl-5,6-dihydroimidazo[2,1-b][1,3]thiazol-2-yl]carbonyl}pyrrolidin-2-yl)-1,3,4-oxadiazol-2(3H)-one] | 6.84
CC(C)C1=C(C(=O)N2CC[C@H]2C(=O)N(C)C)SC2=N[C@@](C)(c3ccc(Cl)cc3)[C@@H](c3ccc(Cl)cc3)N21 [Example 93, (2S)-1-{[(5R,6S)-5,6-Bis(4-chlorophenyl)-3-isopropyl-6-methyl-5,6-dihydroimidazo[2,1-b][1,3]thiazol-2-yl]carbonyl}-N,N-dimethylazetidine-2-carboxamide] | 6.87
CNc1cc([C@]2(C)N=C3SC(C(=O)N4CCC[C@H]4C(=O)N4CCN(C)CC4)=C(C(C)C)N3[C@@H]2c2ccc(Cl)cc2)ccc1Cl [Example 102] | 7.10
CC[C@@H]1CC[C@@H](C(=O)N2C[C@@H](C)N[C@@H](C)C2)N1C(=O)C1=C(C(C)C)N2C(=N[C@@](C)(c3ccc(Cl)cc3)[C@H]2c2ccc(Cl)cc2)S1 [Example 105, (5R,6S)-5,6-Bis(4-chlorophenyl)-2-[((2S,5R)-2-{[(3R,5S)-3,5-dimethylpiperazin-1-yl]carbonyl}-5-ethylpyrrolidin-1-yl)carbonyl]-3-isopropyl-6-methyl-5,6-dihydroimidazo[2,1-b][1,3]thiazole] | 7.74
